According to ChEMBL document CHEMBL1201862, “PubChem BioAssay data set” (2004):
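48-hour exposure; five concentrations; linearly interpolated endpoints. GI50 = concentration required for 50% inhibition of growth.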 Active and inactive are the calls of the source. Cut-off read from the data, not from the text of the source: active = GI50 up to about 1.1 µM and inactive = higher. Where a SMILES comes first, the peptide text is derived from it. The star is where a group is joined. Cbz = O=C(OCc1ccccc1)*; Boc = CC(C)(C)OC(=O)*; OSu = O=C1CCC(=O)N1O*; Bn = c1ccc(C*)cc1

Legend:
Test in all cases: NCI anticancer screen, dose series, 48 h
A498 = test system: A498
A549 = test system: A549
CAKI-1 = test system: CAKI-1
HCC 2998 = test system: HCC 2998
MCF7 = test system: MCF7
MDA-N = test system: MDA-N
MOLT-4 = test system: MOLT-4
NCI-H460 = test system: NCI-H460
OVCAR-4 = test system: OVCAR-4
SF-268 = test system: SF-268
SK-MEL-2 = test system: SK-MEL-2
SK-OV-3 = test system: SK-OV-3
TK-10 = test system: TK-10
U-251 = test system: U-251
UO-31 = test system: UO-31
RPMI-8226 = test system: RPMI-8226

SMILES	GI50 (A498)	GI50 (A549)	GI50 (CAKI-1)	GI50 (HCC 2998)	GI50 (MCF7)	GI50 (MDA-N)	GI50 (MOLT-4)	GI50 (NCI-H460)	GI50 (OVCAR-4)	GI50 (SF-268)	GI50 (SK-MEL-2)	GI50 (SK-OV-3)	GI50 (TK-10)	GI50 (U-251)	GI50 (UO-31)	GI50 (RPMI-8226)
COc1cc(NCc2ccc3nc(-c4ccccc4)c(N)nc3c2)cc(OC)c1OC	23.3 µM (inactive)	30.8 µM (inactive)	28.8 µM (inactive)	51.8 µM (inactive)	28.5 µM (inactive)	27.5 µM (inactive)	23.3 µM (inactive)	31.4 µM (inactive)	29.3 µM (inactive)	34.8 µM (inactive)	31 µM (inactive)	42.3 µM (inactive)	41.4 µM (inactive)	39.3 µM (inactive)	29.2 µM (inactive)	
CC(C)=NN/C(=N\c1ccc(Cl)cc1)NS(=O)(=O)c1ccc(C)cc1	33 µM (inactive)	62.4 µM (inactive)	62.2 µM (inactive)		58.5 µM (inactive)	> 100 µM (inactive)	41.5 µM (inactive)	57.8 µM (inactive)	51.1 µM (inactive)	60 µM (inactive)	73.1 µM (inactive)		50.8 µM (inactive)	96.8 µM (inactive)	> 100 µM (inactive)	44.2 µM (inactive)
COc1ccc(C2=CC(c3ccc4c(c3)OCO4)c3c(c4ccccc4oc3=O)O2)cc1OC (centres undefined)	0.91 µM (active)	2.78 µM (inactive)	1.1 µM (active)	1.46 µM (inactive)	0.454 µM (active)	0.324 µM (active)	3.42 µM (inactive)	1.09 µM (active)	98.4 µM (inactive)	5.07 µM (inactive)		0.859 µM (active)	2.75 µM (inactive)	1.98 µM (inactive)	2.55 µM (inactive)	2.64 µM (inactive)
O=C(N/N=C/c1ccco1)c1cc(I)cc(I)c1O	12.9 µM (inactive)	31.9 µM (inactive)	19.4 µM (inactive)		24.2 µM (inactive)	22.9 µM (inactive)	26.3 µM (inactive)		35.8 µM (inactive)	> 50 µM (inactive)	5.22 µM (inactive)				24 µM (inactive)	15.2 µM (inactive)
COC1=CC2=NCCc3n[nH]c(c32)C1=O	23.5 µM (inactive)	24.3 µM (inactive)		47.1 µM (inactive)	4.86 µM (inactive)	10.9 µM (inactive)	18.6 µM (inactive)	27 µM (inactive)			15.3 µM (inactive)		22.1 µM (inactive)	16.7 µM (inactive)	24.7 µM (inactive)	11.5 µM (inactive)
CC(NC(=O)OC(C)(C)C)C(=O)NC(Cc1ccccc1)C(=O)NCC(=O)Oc1c(Cl)c(Cl)c(Cl)c(Cl)c1Cl (centres undefined)	21.2 µM (inactive)	19.5 µM (inactive)		15.3 µM (inactive)	21.9 µM (inactive)	28.2 µM (inactive)	23.2 µM (inactive)	25.6 µM (inactive)			20.7 µM (inactive)		27 µM (inactive)	19.7 µM (inactive)	14.2 µM (inactive)	23.2 µM (inactive)
CN(CCO)CC(=O)CC(O)(C(F)(F)F)C(F)(F)F	44.6 µM (inactive)	30.4 µM (inactive)	30.1 µM (inactive)	56.2 µM (inactive)	46.2 µM (inactive)	32.1 µM (inactive)	52.6 µM (inactive)	27.5 µM (inactive)	50 µM (inactive)		33 µM (inactive)	26.4 µM (inactive)	35.4 µM (inactive)	28.6 µM (inactive)	39.1 µM (inactive)	32.1 µM (inactive)
COC(=O)CC1C2CC3C(C2=O)C13 (centres undefined)	> 100 µM (inactive)	> 100 µM (inactive)	> 100 µM (inactive)	> 100 µM (inactive)	> 100 µM (inactive)	> 100 µM (inactive)	> 100 µM (inactive)	> 100 µM (inactive)	> 100 µM (inactive)	> 100 µM (inactive)	> 100 µM (inactive)	> 100 µM (inactive)	> 100 µM (inactive)	> 100 µM (inactive)	> 100 µM (inactive)	
NC(=O)c1cc2ccccc2o/c1=N/c1ccccc1	> 100 µM (inactive)	> 100 µM (inactive)	> 100 µM (inactive)	> 100 µM (inactive)	> 100 µM (inactive)	> 100 µM (inactive)	> 100 µM (inactive)	> 100 µM (inactive)	> 100 µM (inactive)	> 100 µM (inactive)	> 100 µM (inactive)	> 100 µM (inactive)		> 100 µM (inactive)		> 100 µM (inactive)
Nc1nc(SCc2ccccn2)c2ncn(C3CCCC3)c2n1	> 100 µM (inactive)	> 100 µM (inactive)	> 100 µM (inactive)	> 100 µM (inactive)	> 100 µM (inactive)	> 100 µM (inactive)		> 100 µM (inactive)	> 100 µM (inactive)	70.5 µM (inactive)	> 100 µM (inactive)	> 100 µM (inactive)	> 100 µM (inactive)	> 100 µM (inactive)	15 µM (inactive)	> 100 µM (inactive)
CC(C)(C)OC(=O)NC(Cc1ccc(OCc2ccccc2)cc1)C(=O)NC(CCCCNC(=O)OCc1ccccc1)C(=O)ON1C(=O)CCC1=O (centres undefined) (Boc-Tyr(Bn)-Lys(Cbz)-OSu; configuration not given here)	48.3 µM (inactive)	34.1 µM (inactive)		16.5 µM (inactive)	19.8 µM (inactive)	15.7 µM (inactive)	20 µM (inactive)	21.7 µM (inactive)			17.4 µM (inactive)		29.6 µM (inactive)	17 µM (inactive)	21.6 µM (inactive)	20 µM (inactive)
CN1CCN(/C(N)=C(\C#N)C(=O)Nc2ccc(Cl)cc2)CC1	40.4 µM (inactive)	> 100 µM (inactive)	79.8 µM (inactive)	59.6 µM (inactive)	68.4 µM (inactive)	52.4 µM (inactive)	54.8 µM (inactive)	74.6 µM (inactive)			32.7 µM (inactive)	> 100 µM (inactive)		96.8 µM (inactive)	55.1 µM (inactive)	27.5 µM (inactive)
COC(=O)c1c2c(cc3c1CC1(Cc4ccccc4C1)C3)CCC2	25.9 µM (inactive)	28.7 µM (inactive)	19.8 µM (inactive)	33.1 µM (inactive)	6.38 µM (inactive)	6.27 µM (inactive)	17.1 µM (inactive)	30.5 µM (inactive)	37.8 µM (inactive)	36.6 µM (inactive)		31.4 µM (inactive)	61.8 µM (inactive)	20.9 µM (inactive)	13 µM (inactive)	17.9 µM (inactive)
O=C1c2ccccc2NC(c2cc(Cl)cc(Cl)c2O)N1CCc1ccccn1 (centres undefined)	> 100 µM (inactive)	48.6 µM (inactive)	> 100 µM (inactive)	53.2 µM (inactive)	61 µM (inactive)	97.9 µM (inactive)		56.2 µM (inactive)	36.8 µM (inactive)	> 100 µM (inactive)	> 100 µM (inactive)	> 100 µM (inactive)	> 100 µM (inactive)	39.8 µM (inactive)	> 100 µM (inactive)	34.8 µM (inactive)
Cc1ccc(N2C3=C(CC4=C2CC(C)(C)CC4=O)C(=O)CC(C)(C)C3)cc1	> 100 µM (inactive)	> 100 µM (inactive)	> 100 µM (inactive)	> 100 µM (inactive)	> 100 µM (inactive)	> 100 µM (inactive)	> 100 µM (inactive)	> 100 µM (inactive)	> 100 µM (inactive)	> 100 µM (inactive)		> 100 µM (inactive)	> 100 µM (inactive)	> 100 µM (inactive)	> 100 µM (inactive)	> 100 µM (inactive)
Cc1cccc(CP(Cc2cccc(C)c2)CC2(Cp3c4ccccc4c4ccccc43)COC2)c1	7.41 µM (inactive)	0.206 µM (active)	9.75 µM (inactive)	12.3 µM (inactive)	3.15 µM (inactive)	6.32 µM (inactive)	0.662 µM (active)	1.63 µM (inactive)	13.3 µM (inactive)	3.79 µM (inactive)	7.23 µM (inactive)	> 100 µM (inactive)		0.47 µM (active)	16.3 µM (inactive)	1.02 µM (active)
OC[C@H]1O[C@@H](Oc2cc(O)cc(/C=C/c3ccc(O)cc3)c2)[C@H](O)[C@@H](O)[C@@H]1O [PICEID]	> 100 µM (inactive)	> 100 µM (inactive)	> 100 µM (inactive)		> 100 µM (inactive)	> 100 µM (inactive)	> 100 µM (inactive)	> 100 µM (inactive)	> 100 µM (inactive)		> 100 µM (inactive)	> 100 µM (inactive)	> 100 µM (inactive)	> 100 µM (inactive)	> 100 µM (inactive)	> 100 µM (inactive)
Cc1nn2c(C(=O)N/N=C/c3ccccc3O)c(C)nc2s1	61.5 µM (inactive)	> 100 µM (inactive)	> 100 µM (inactive)	55.1 µM (inactive)	30.8 µM (inactive)	> 100 µM (inactive)	51.9 µM (inactive)	49.7 µM (inactive)	> 100 µM (inactive)	> 100 µM (inactive)			> 100 µM (inactive)	38 µM (inactive)	> 100 µM (inactive)	
Cn1cnc(C(N)=[Se])c1N	16.4 µM (inactive)	1.71 µM (inactive)	3.27 µM (inactive)	15.4 µM (inactive)	3.15 µM (inactive)	4.98 µM (inactive)		0.183 µM (active)		1.95 µM (inactive)	2.27 µM (inactive)	1.25 µM (inactive)	2.64 µM (inactive)	1.35 µM (inactive)	2.07 µM (inactive)	2.94 µM (inactive)
